Values quoted from earlier work in patent US20230046815A1, “Wound honey with a pump dispenser” (priority 2021, published 2023).

Tested on: Salmonella sp.
Conditions: single agent

Row | SMILES | Minimal Bactericidal Concentration
1 | OO [Hydrogen Peroxide] | 3.12%
2 | O=C(O)CC(O)(CC(=O)O)C(=O)O [Citric Acid] | 5%
